Test results published in patent US11285156B2, “Substituted piperazines as KRAS G12C inhibitors” (Amgen Inc., priority 2018, dated 2022).

What was measured:
[1] = test system: Phosphorylation of ERK1/2 in A549 cells; assay: Phospho-ERK1/2 MSD assay in A549 cells; assay type: cell-based; conditions: Homo sapiens, A549, 2 h, read-out: p-ERK IC50 (2 h, A549; μM), 2 h compound treatment, A549 cells, EGF stimulated
Outline: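 Phospho-ERK1/2 was quantified by MSD immunoassay in RIPA lysates of MIA PaCa-2 or A549 cells. Before lysis, cells received 10 ng/mL EGF for 10 min after 2 or 4 h exposure at 37° C. to a compound concentration series.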

[2] = test system: Phosphorylation of ERK1/2 in MIA PaCa-2 cells; assay: Phospho-ERK1/2 MSD assay in MIA PaCa-2 cells; assay type: cell-based; conditions: Homo sapiens, MIA PaCa-2, 2 h, read-out: p-ERK IC50 (2 h, MiaPaCa-2; μM), 2 h compound treatment, MIA PaCa-2 cells, EGF stimulated
Outline: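 Phospho-ERK1/2 measured by MSD electrochemiluminescence kit in RIPA lysates of MIA PaCa-2 cells. Cells were treated with compound titrations for 2 or 4 h at 37 °C, 5% CO2, followed by a 10 min pulse of 10 ng/mL EGF.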

[3] = molecular target: GDP-bound KRAS protein (aa 1-169), containing both G12C and C118A amino acid substitutions (Homo sapiens (Human), UniProt P01116, C118A/G12C); assay: Coupled nucleotide exchange assay (SOS-mediated nucleotide exchange, AlphaScreen); assay type: biochemical; conditions: read-out: Coupled exchange IC50 (5 min; μM); 5 min compound pre-incubation
Sequence of GDP-bound KRAS protein (aa 1-169), containing both G12C and C118A amino acid substitutions (P01116 other isoform, or with tags, fused parts or gaps G12C/C118A): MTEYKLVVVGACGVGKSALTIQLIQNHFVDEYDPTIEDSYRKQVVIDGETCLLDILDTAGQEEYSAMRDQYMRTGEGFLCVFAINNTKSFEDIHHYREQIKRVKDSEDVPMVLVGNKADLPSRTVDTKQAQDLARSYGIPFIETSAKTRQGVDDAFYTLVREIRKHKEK

Row | SMILES | IC50 [1] [µM] | IC50 [2] [µM] | IC50 [3] [µM]
1 | C=CC(=O)N1C[C@H](C)N(c2nc(=O)n(-c3c(C)ccnc3C(C)C)c3nc(-c4ccccc4C4CC4)c(Cl)cc23)C[C@H]1C (atropisomer, axis not shown; (M)) [Example 92-4, (M)-6-Chloro-7-(2-cyclopropylphenyl)-4-[(2S,5R)-2,5-dimethyl-4-prop-2-enoyl-piperazin-1-yl]-1-(2-isopropyl-4-methyl-3-pyridyl)pyrido [2,3-d]pyrimidin-2-one] | > 7.5 | 0.042 | 0.044
2 | C=CC(=O)N1C[C@H](C)N(c2nc(=O)n(-c3c(C)ccnc3C(C)C)c3nc(C4=CCCCCC4)c(Cl)cc23)C[C@H]1C (atropisomer, axis not shown; (M)) [Example 92-10, (M)-6-Chloro-7-(cyclohepten-1-yl)-4-[(2S,5R)-2,5-dimethyl-4-prop-2-enoyl-piperazin-1-yl]-1-(2-isopropyl-4-methyl-3-pyridyl)pyrido [2,3-d]pyrimidin-2-one] | > 7.5 | 0.367 | 0.059
3 | C=CC(=O)N1C[C@H](C)N(c2nc(=O)n(-c3c(C)ccnc3C(C)C)c3nc(-c4cccc5cc[nH]c45)c(Cl)cc23)C[C@H]1C (atropisomer, axis not shown; (M)) [Example 92-11, (M)-6-Chloro-4-[(2S,5R)-2,5-dimethyl-4-prop-2-enoyl-piperazin-1-yl]-7-(lH-indol-7-yl)-1-(2-isopropyl-4-methyl-3-pyridyl)pyrido [2,3-d]pyrimidin-2-one] | > 7.5 | 0.262 | 0.086
4 | C=CC(=O)N1C[C@H](C)N(c2nc(=O)n(-c3c(C)ccnc3C(C)C)c3nc(-c4ccccc4N)c(Cl)cc23)C[C@H]1C (atropisomer, axis not shown; (M)) [Example 92-12, (M)-7-(2-Aminophenyl)-6-chloro-4-[(2S,5R)-2,5-dimethyl-4-prop-2-enoyl-piperazin-1-yl]-1-(2-isopropyl-4-methyl-3-pyridyl)pyrido[2,3-d]pyrimidin-2-one] | > 7.5 | 0.022 | 0.019
5 | C=CC(=O)N1C[C@H](C)N(c2nc(=O)n(-c3c(C)ccnc3C(C)C)c3nc(-c4cccnc4N)c(Cl)cc23)C[C@H]1C (atropisomer, axis not shown; (M)) [Example 92-13, (M)-7-(2-Amino-3-pyridyl)-6-chloro-4-[(2S,5R)-2,5-dimethyl-4-prop-2-enoyl-piperazin-1-yl]-1-(2-isopropyl-4-methyl-3-pyridyl)pyrido [2,3-d]pyrimidin-2-one] | > 7.5 | 0.251 | 0.201
6 | C=CC(=O)N1C[C@H](C)N(c2nc(=O)n(-c3c(C)ccnc3C(C)C)c3nc(-c4ccccc4OC(F)F)c(Cl)cc23)C[C@H]1C (atropisomer, axis not shown; (M)) [Example 92-14, (M)-6-Chloro-7-[2-(difluoromethoxy)phenyl]-4-[(2S,5R)-2,5-dimethyl-4-prop-2-enoyl-piperazin-1-yl]-1-(2-isopropyl-4-methyl-3-pyridyl)pyrido [2,3-d]pyrimidin-2-one] | > 7.5 | 0.074 | 0.121
7 | C=CC(=O)N1C[C@H](C)N(c2nc(=O)n(-c3c(C)ccnc3C(C)C)c3nc(-c4c(C)ccc5cn[nH]c45)c(Cl)cc23)C[C@H]1C (atropisomer, axis not shown; (M)) [Example 92-15, (M)-6-Chloro-4-[(2S,5R)-2,5-dimethyl-4-prop-2-enoyl-piperazin-1-yl]-1-(2-isopropyl-4-methyl-3-pyridyl)-7-(6-methyl-1H-indazol-7-yl)pyrido[2,3-d]pyrimidin-2-one] | > 7.5 | 0.125 | 0.094
8 | C=CC(=O)N1C[C@H](C)N(c2nc(=O)n(-c3c(C)ccnc3C(C)C)c3nc(-c4ccccc4C(F)F)c(Cl)cc23)C[C@H]1C (atropisomer, axis not shown; (M)) [Example 92-16, (M)-6-Chloro-7-[2-(difluoromethyl)phenyl]-4-[(2S,5R)-2,5-dimethyl-4-prop-2-enoyl-piperazin-1-yl]-1-(2-isopropyl-4-methyl-3-pyridyl)pyrido [2,3-d]pyrimidin-2-one] | > 7.5 | 0.015 | 0.043
9 | C=CC(=O)N1C[C@H](C)N(c2nc(=O)n(-c3c(C)ccnc3C(C)C)c3nc(-c4cccc(F)c4N)c(Cl)cc23)C[C@H]1C (atropisomer, axis not shown; (M)) [Example 92-17, (M)-7-(2-Amino-3-fluoro-phenyl)-6-chloro-4-[(2S,5R)-2,5-dimethyl-4-prop-2-enoyl-piperazin-1-yl]-1-(2-isopropyl-4-methyl-3-pyridyl)pyrido[2,3-d]pyrimidin-2-one] | > 7.5 | 0.018 | 0.042
10 | C=CC(=O)N1C[C@H](C)N(c2nc(=O)n(-c3c(C)ccnc3C(C)C)c3nc(-c4ccccc4NC(C)=O)c(Cl)cc23)C[C@H]1C (atropisomer, axis not shown; (M)) [Example 92-18, (M)-N-[2-[6-Chloro-4-[(2S,5R)-2,5-dimethyl-4-prop-2-enoyl-piperazin-1-yl]-1-(2-isopropyl-4-methyl-3-pyridyl)-2-oxo-pyrido[2,3-d]pyrimidin-7-yl]phenyl] acetamide] | > 7.5 | 0.17 | 0.085
11 | C=CC(=O)N1C[C@H](C)N(c2nc(=O)n(-c3c(C)ccnc3C(C)C)c3nc(-c4ccccc4N(C)C)c(Cl)cc23)C[C@H]1C (atropisomer, axis not shown; (M)) [Example 92-19, (M)-6-Chloro-7-[2-(dimethylamino)phenyl]-4-[(2S,5R)-2,5-dimethyl-4-prop-2-enoyl-piperazin-1-yl]-1-(2-isopropyl-4-methyl-3-pyridyl)pyrido [2,3-d]pyrimidin-2-one] | > 7.5 | 0.027 | 0.044
12 | C=CC(=O)N1C[C@H](C)N(c2nc(=O)n(-c3c(C)ccnc3C(C)C)c3nc(-c4ccccc4C(N)=O)c(Cl)cc23)C[C@H]1C (atropisomer, axis not shown; (M)) [Example 92-21, (M)-2-[6-Chloro-4-[(2S,5R)-2,5-dimethyl-4-prop-2-enoyl-piperazin-1-yl]-1-(2-isopropyl-4-methyl-3-pyridyl)-2-oxo-pyrido[2,3-d]pyrimidin-7-yl]benzamide] | > 7.5 | 0.637 | 0.051
13 | C=CC(=O)N1C[C@H](C)N(c2nc(=O)n(-c3c(C)ccnc3C(C)C)c3nc(-c4ccccc4C(F)(F)F)c(Cl)cc23)C[C@H]1C (atropisomer, axis not shown; (M)) [Example 92-23, (M)-6-Chloro-4-[(2S,5R)-2,5-dimethyl-4-prop-2-enoyl-piperazin-1-yl]-1-(2-isopropyl-4-methyl-3-pyridyl)-7-[2-(trifluoromethyl)phenyl]pyrido [2,3-d]pyrimidin-2-one] | > 7.5 | 0.036 | 0.038
14 | C=CC(=O)N1C[C@H](C)N(c2nc(=O)n(-c3c(C)ccnc3C(C)C)c3nc(-c4c(F)cccc4C(N)=O)c(Cl)cc23)C[C@H]1C (atropisomer, axis not shown; (M)) [Example 92-24, (M)-2-[6-Chloro-4-[(2S,5R)-2,5-dimethyl-4-prop-2-enoyl-piperazin-1-yl]-1-(2-isopropyl-4-methyl-3-pyridyl)-2-oxo-pyrido[2,3-d]pyrimidin-7-yl]-3-fluoro-benzamide] | > 7.5 | 0.116 | 0.019
15 | C=CC(=O)N1C[C@H](C)N(c2nc(=O)n(-c3c(C)ccnc3C(C)C)c3nc(-c4ccccc4NC)c(Cl)cc23)C[C@H]1C (atropisomer, axis not shown; (M)) [Example 92-25, (M)-6-Chloro-4-[(2S,5R)-2,5-dimethyl-4-prop-2-enoyl-piperazin-1-yl]-1-(2-isopropyl-4-methyl-3-pyridyl)-7-[2-(methylamino)phenyl]pyrido[2,3-d]pyrimidin-2-one] | > 7.5 | 0.016 | 0.04
16 | C=CC(=O)N1C[C@H](C)N(c2nc(=O)n(-c3c(C)ccnc3C(C)C)c3nc(-c4cc(F)cc(F)c4N)c(Cl)cc23)C[C@H]1C (atropisomer, axis not shown; (M)) [Example 92-26, (M)-7-(2-Amino-3,5-difluoro-phenyl)-6-chloro-4-[(2S,5R)-2,5-dimethyl-4-prop-2-enoyl-piperazin-1-yl]-1-(2-isopropyl-4-methyl-3-pyridyl)pyrido [2,3-d]pyrimidin-2-one] | > 7.5 | 0.023 | 0.101
17 | C=CC(=O)N1C[C@H](C)N(c2nc(=O)n(-c3c(C)ccnc3C(C)C)c3nc(-c4ccccc4C(=O)NC)c(Cl)cc23)C[C@H]1C (atropisomer, axis not shown; (M)) [Example 92-27, (M)-2-[6-Chloro-4-[(2S,5R)-2,5-dimethyl-4-prop-2-enoyl-piperazin-1-yl]-1-(2-isopropyl-4-methyl-3-pyridyl)-2-oxo-pyrido[2,3-d]pyrimidin-7-yl]-N-methyl-benzamide] | > 7.5 | 0.735 | 0.149
18 | C=CC(=O)N1C[C@H](C)N(c2nc(=O)n(-c3c(C)ccnc3C(C)C)c3nc(-c4ccccc4C(=O)N(C)C)c(Cl)cc23)C[C@H]1C (atropisomer, axis not shown; (M)) [Example 92-28, (M)-2-[6-Chloro-4-[(2S,5R)-2,5-dimethyl-4-prop-2-enoyl-piperazin-1-yl]-1-(2-isopropyl-4-methyl-3-pyridyl)-2-oxo-pyrido[2,3-d]pyrimidin-7-yl]-N,N-dimethyl-benzamide] | > 7.5 | 0.11 | 0.123
